Experimental data: the supplement of paper PMC4862054

Tests used:
Details in all cases: incubation time: 72 h
DU-4475 [1] = test: drug sensitivity score (DSS), CellTox Green (DSS (AUC-based score)); higher = stronger drug effect (viability inhibition or cytotoxicity); extreme values may be limits of the assay
Outline: (§1)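 Normalisation on every plate relied on 0.1 % DMSO and a positive kill control. The plates, 384-well format, held compound at 5 concentrations 10-fold apart across a compound-specific 10,000-fold range, and breast cancer cell lines in 20 µl suspension were incubated on them for 72 h before CellTox Green and then CellTiter-Glo readings. The drug sensitivity score derives from the area under the fitted dose-response curve.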

CAL-120 [2] = test: as above
Outline: as §1

BT-549 [3] = test: as above
Outline: as §1

CAL-148 [4] = test: as above
Outline: as §1

CAL-51 [5] = test: as above
Outline: as §1

BT-474 [6] = test: as above
Outline: as §1

MFM-223 [7] = test: as above
Outline: as §1

MDA-MB-468 [8] = test: as above
Outline: as §1

DU-4475 [9] = test: drug sensitivity score (DSS), CellTiter-Glo (DSS (AUC-based score)); higher = stronger drug effect (viability inhibition or cytotoxicity); extreme values may be limits of the assay
Outline: as §1

HCC1143 = test: as above
Outline: as §1

HDQ-P1 = test: as above
Outline: as §1

SK-BR-3 = test: as above
Outline: as §1

Hs578T = test: as above
Outline: as §1

MDA-MB-231 = test: as above
Outline: as §1

CAL-120 [10] = test: as above
Outline: as §1

CAL-85-1 = test: as above
Outline: as §1

MDA-MB-436 = test: as above
Outline: as §1

HCC1937 = test: as above
Outline: as §1

HCC1599 = test: as above
Outline: as §1

BT-549 [11] = test: as above
Outline: as §1

CAL-148 [12] = test: as above
Outline: as §1

CAL-51 [13] = test: as above
Outline: as §1

MCF-10A = test: as above
Outline: as §1

BT-474 [14] = test: as above
Outline: as §1

MDA-MB-453 = test: as above
Outline: as §1

MFM-223 [15] = test: as above
Outline: as §1

MDA-MB-468 [16] = test: as above
Outline: as §1

Structure (SMILES) | drug sensitivity score (DU-4475 [1]) | drug sensitivity score (CAL-120 [2]) | drug sensitivity score (BT-549 [3]) | drug sensitivity score (CAL-148 [4]) | drug sensitivity score (CAL-51 [5]) | drug sensitivity score (BT-474 [6]) | drug sensitivity score (MFM-223 [7]) | drug sensitivity score (MDA-MB-468 [8]) | drug sensitivity score (DU-4475 [9]) | drug sensitivity score (HCC1143) | drug sensitivity score (HDQ-P1) | drug sensitivity score (SK-BR-3) | drug sensitivity score (Hs578T) | drug sensitivity score (MDA-MB-231) | drug sensitivity score (CAL-120 [10]) | drug sensitivity score (CAL-85-1) | drug sensitivity score (MDA-MB-436) | drug sensitivity score (HCC1937) | drug sensitivity score (HCC1599) | drug sensitivity score (BT-549 [11]) | drug sensitivity score (CAL-148 [12]) | drug sensitivity score (CAL-51 [13]) | drug sensitivity score (MCF-10A) | drug sensitivity score (BT-474 [14]) | drug sensitivity score (MDA-MB-453) | drug sensitivity score (MFM-223 [15]) | drug sensitivity score (MDA-MB-468 [16])
CN1CCC(COc2cnc(-c3cccc(Cn4nc(-c5cccc(C#N)c5)ccc4=O)c3)nc2)CC1 | 0 | 0 | 0 | 0 | 0 | 0 | 0 | 0 | 0 | 0 | 0 | 0 | 0 | 0 | 0 | 0 | 1.23 | 0 | 0 | 0 | 0 | 0 | 0 | 0 | 0 | 0 | 0
CN(C)C/C=C/C(=O)Nc1cc2c(Nc3ccc(F)c(Cl)c3)ncnc2cc1O[C@H]1CCOC1 [Afatinib] | 0 | 0 | 0 | 0 | 0 | 3.66 | 0 | 0 | 0 | 0 | 8.44 | 17.8 | 0 | 0 | 0 | 6.39 | 0 | 0 | 0 | 0.0448 | 3.9 | 0 | 17.4 | 0 | 4.69 | 0 | 2.66
COc1cc(Nc2ncc3c(n2)-c2ccc(Cl)cc2C(c2c(F)cccc2OC)=NC3)ccc1C(=O)O [Alisertib] | 0 | 0 | 5.31 | 9.1 | 27.9 | 2.03 | 0 | 32.7 | 9.45 | 8.44 | 3.21 | 0 | 5.73 | 4.67 | 5.92 | 0 | 11.8 | 3.43 | 0 | 12.7 | 7.08 | 12.8 | 0 | 8.02 | 0 | 10.8 | 23.4
CN1CC[C@H](c2c(O)cc(O)c3c(=O)cc(-c4ccccc4Cl)oc23)[C@H](O)C1 [Alvocidib] | 0 | 1.81 | 2.81 | 0 | 4.44 | 0.211 | 7.92 | 0 | 17.3 | 14.9 | 16.5 | 19.8 | 16.2 | 19.1 | 14.1 | 16.3 | 18.8 | 13.2 | 14.7 | 17.7 | 11.4 | 19 | 16.2 | 16.9 | 12.8 | 16.1 | 18.1
Nc1nc(Cl)nc2c1ncn2[C@H]1C[C@H](O)[C@@H](CO)O1 [Cladribine] | 0 | 0 | 0 | 0 | 0 | 0 | 3.32 | 14.3 | 0 | 0 | 0 | 0 | 0 | 0 | 1.39 | 0 | 0 | 0 | 0 | 6.43 | 0 | 0 | 0 | 0 | 0 | 0 | 0.301
Nc1ccn([C@@H]2O[C@H](CO)[C@@H](O)[C@@H]2O)c(=O)n1 [Cytarabine] | 0 | 0 | 0 | 7.92 | 13.1 | 0 | 0 | 0 | 3.25 | 3.36 | 1.06 | 12.2 | 2.8 | 0 | 0.601 | 0 | 10.5 | 0 | 0 | 7.56 | 11.3 | 13.4 | 0 | 0.361 | 0 | 0 | 4.8
